The values below come from US5061723A, “Non-teratogenic vitamin A preparation for women of child-bearing age” (Iowa State University Research Foundation, Inc., priority 1989, dated 1991).

The conditions of data set [1]: cited from earlier work.
Data set [2] deals with pregnant rats (fetuses). Description: Teratogenicity test in pregnant rats (single oral dose on day 8.5 of gestation; fetuses examined day 19-19.5). It is filed as in vivo, rat. Here is the method: All-trans retinoic acid glucuronide was tested for teratogenicity in pregnant rats.
The retinoic acid glucuronide dissolved in vegetable oil. Equivalent amount of all-trans retinoic acid was also dissolved in the vegetable oil. Groups of pregnant rats were dosed orally with either retinoid glucuronide or retinoic acid on day 8.5 of gestation. […] The rats were killed on day 19.5 of a 21 day gestational period, and the fetuses were examined for viability, growth, and developmental abnormalities.
Rats that became pregnant during the same night were selected for the study. The rats were divided into 3 groups. Rats in Group 1 received orally 55 mg of the all-trans retinoic acid glucuronide (equivalent to 35 mg of retinoic acid) or a very large dose of 108 mg of the glucuronide in peanut oil. Rats in Group 2 received orally 35 mg of all-trans retinoic acid in peanut oil. Rats in Group 3 received no retinoid and served as control. The rats were then allowed to grow normally and on day 19, they were killed and fetuses were examined.

A short description of data set [3]: Solubility in water. It is filed as physicochemical. Particulars: all-trans retinoyl β-glucuronide.
Data set [4] relates to β-glucuronidase. Description: Hydrolysis by β-glucuronidase (from E. coli). The class given is biochemical. Particulars: phosphate buffer pH 6.8, 0.5-2 hrs. Here is the method:
An analytically pure sample of retinoyl β-glucuronide was obtained by HPLC of the above preparation on a Whatman ODS-3 column (M9, 50 cm) using methanol/water (7:3) containing 10 mM ammonium acetate at a flow rate of 3 ml/min. Retinoyl β-glucuronide (tR =49.7 min) separated from traces of isomers or anomers (tR =46.4 min). The eluate carrying retinoyl β-glucuronide was diluted with water and made just acidic with 0.1N HCl. The product was extracted with ethyl acetate. The extract was washed with water, dried over anhydrous sodium sulfate, and then evaporated to dryness. The residue was dissolved in a small volume of diethyl ether and all-trans retinoyl β-glucuronide was precipitated with hexane. The solid was separated and dried. All-trans retinoyl β-glucuronide:m.p. 142°-143° C. (darkens at 125° C.); UVmax 360 nm (E1cm =1065) in methanol and 365 nm in water. The ^1 H-NMR, IR and Mass spectra and C, H analysis results were consistent with the structure.

Data set [5] concerns HL-60 cells. Particulars: cited from earlier work; for activity in the HL-60 systems assay: compared with retinoic acid and retinol.
In data set [6] the test system is human fetus. The note with it: oral, 0.5 to 2 mg/kg body weight per 24 hours; cited from earlier work.

Turning to `CC1=C(/C=C/C(C)=C/C=C/C(C)=C/C(=O)O)C(C)(C)CCC1` [Retinoic acid, all-trans retinoic acid, reference compound], the water solubility result in data set [1] is recorded as “not water-soluble”. Besides, the “outcome of pregnancy / embryos” value in data set [2] (same large doses of retinoic acid, oral) is “did not carry the pregnancy to term--all the embryos died and were being resorbed”.
As to `CC1=C(/C=C/C(C)=C/C=C/C(C)=C/C(=O)O[C@@H]2O[C@H](C(=O)O)[C@@H](O)[C@H](O)[C@H]2O)C(C)(C)CCC1` [Retinoyl β-glucuronide, All-trans retinoyl β-glucuronide], the solubility in water result in data set [3] is listed as “soluble in water”. Moreover, the “product of incubation with β-glucuronidase” value in data set [4] is listed as “generated retinoic acid”. Also, in data set [2] (rat, in vivo, po), the condition of pups result is “All the pups were normal and live”; the “teratogenicity, observation in words” value is “did not show any sign of teratogenicity”. Moreover, in data set [5], the “activity in the HL-60 systems assay” value is “activity similar to retinoic acid and retinol”. In data set [5] (in vitro, vs all-trans retinoic acid, Gallup et al. and Zile et al.), the “cytotoxicity to HL-60 cells, less than all-trans retinoic acid” value is recorded as 50%.
On to `CC1=C(/C=C/C(C)=C/C=C/C(C)=C\C(=O)O)C(C)(C)CCC1` [isotretinoin, 13-cis form of retinoic acid], for which the “teratogenicity at typical clinical doses” value in data set [6] is given as “highly teratogenic”.
As to `CC1=C(/C=C/C(C)=C/C=C/C(C)=C/COC2O[C@H](C(=O)O)[C@@H](O)[C@H](O)[C@H]2O)C(C)(C)CCC1` (some centres unmarked) [retinol glucuronide, reference compound], the “activity in the HL-60 systems assay” value in data set [5] is “activity similar to retinoic acid and retinol”.
As to `CC1=C(/C=C/C(C)=C/C=C/C(C)=C/CO)C(C)(C)CCC1` [retinol], the water solubility result in data set [1] is recorded as “water-insoluble”.
